# Data reported in publication PMC3839579 (Food chemistry, 2012).
# What was measured:
# [1] = type: in vitro ADME, human; details: preliminary analysis
# [2] = Stability of cyanidin chloride in acidified water; type: physicochemical
# [3] = Stability of cyanidin chloride, PCA and PGA in saliva; type: in vitro ADME, human
# [4] = type: in vitro ADME, human; details: individual glucosides in RdGrp extract, chlorhexidine rinse
smiles,measurement,setting,value
"OC[C@H]1O[C@@H](Oc2cc3c(O)cc(O)cc3[o+]c2-c2ccc(O)c(O)c2)[C@H](O)[C@@H](O)[C@@H]1O [Cy-3-glu, Cyanidin-3-O-glucoside]",Chalcone glucosides of Cy as share of the original amount incubated in saliva ex vivo,[1],≤ 30%
"Oc1cc(O)c2cc(O)c(-c3ccc(O)c(O)c3)[o+]c2c1 [CyCl, cyanidin chloride]",CyCl recovered immediately after addition to acidified water,[2]; 0 min,Greater than 86%
same,CyCl lost after incubation in acidified water,[2]; 60 min,greater than 88%
same,Cyanidin aglycone degraded upon addition to intact saliva,"[3]; human, 0 min, 25 nmol/L",> 90%
same,PCA as share of the degraded CyCl in saliva,"[3]; human, 0 min, 25 nmol/mL",15.3%
same,PCA as share of the degraded CyCl in saliva,"[3]; human, 60 min, 25 nmol/mL",9.6%
"OC[C@H]1O[C@@H](Oc2cc3c(O)cc(O)cc3[o+]c2-c2cc(O)c(O)c(O)c2)[C@H](O)[C@@H](O)[C@@H]1O [Dp, Delphinidin-3-O-glucoside]",Decrease of degradation in saliva after antibacterial treatment,[4],30%
"COc1cc(-c2[o+]c3cc(O)cc(O)c3cc2O[C@@H]2O[C@H](CO)[C@@H](O)[C@H](O)[C@H]2O)cc(OC)c1O [Mv, Malvidin-3-O-glucoside]",Decrease of degradation in saliva after antibacterial treatment,[4],50%
"O=C(O)c1ccc(O)c(O)c1 [PCA, protocatechuic acid]","recovery at 60 min, 25 nmol/mL",[3]; human,90%
"O=Cc1c(O)cc(O)cc1O [PGA, phloroglucinol aldehyde]",Recovery after incubation in intact saliva,"[3]; 25 nmol/mL, 37 °C, 60 min",43%
"COc1cc(-c2[o+]c3cc(O)cc(O)c3cc2O[C@@H]2O[C@H](CO)[C@@H](O)[C@H](O)[C@H]2O)ccc1O [Pn, Peonidin-3-O-glucoside]",Decrease of degradation in saliva after antibacterial treatment,[4],50%
"COc1cc(-c2[o+]c3cc(O)cc(O)c3cc2O[C@@H]2O[C@H](CO)[C@@H](O)[C@H](O)[C@H]2O)cc(O)c1O [Pt-3-glu, Petunidin-3-O-glucoside]",Decrease of degradation in saliva after antibacterial treatment,[4],10%
